Measurements as given in the supplement of paper PMC10307832.

Columns and labels:
Assay in all cases: relative viability (nuclei count vs DMSO), 5 days (fraction); higher = more cells survive
Carboplatin + AZD7762 = compound: C1CC(C1)(C(=O)O)C(=O)O.[NH2-].[NH2-].[Pt+2] [Carboplatin] + NC(=O)Nc1cc(-c2cccc(F)c2)sc1C(=O)N[C@H]1CCCNC1 [AZD7762] (partner 0.2 µM)
Procedure, shortened: (§1)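 Lung cancer cell lines were pin-tool dosed in 1536-well plates on the day after seeding, with either a lone drug or a fixed anchor-drug dose plus five library-drug doses (not always all listed) in √10 steps. Nuclei were counted on 4× images after 5 days. Relative viability is the ratio of treated-well to vehicle-well nuclei counts, with each value a median of duplicate plates.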

Carboplatin + Lapatinib = compound: C1CC(C1)(C(=O)O)C(=O)O.[NH2-].[NH2-].[Pt+2] [Carboplatin] + CS(=O)(=O)CCNCc1ccc(-c2ccc3ncnc(Nc4ccc(OCc5cccc(F)c5)c(Cl)c4)c3c2)o1 [Lapatinib] (partner 2 µM)
Procedure, shortened: as §1

MLN4924 + Olaparib = compound: NS(=O)(=O)OC[C@@H]1C[C@@H](n2ccc3c(N[C@H]4CCc5ccccc54)ncnc32)C[C@@H]1O [MLN4924] + O=C(c1cc(Cc2n[nH]c(=O)c3ccccc23)ccc1F)N1CCN(C(=O)C2CC2)CC1 [Olaparib] (partner 8 µM)
Procedure, shortened: as §1

MLN4924 + Trametinib = compound: NS(=O)(=O)OC[C@@H]1C[C@@H](n2ccc3c(N[C@H]4CCc5ccccc54)ncnc32)C[C@@H]1O [MLN4924] + CC(=O)Nc1cccc(-n2c(=O)n(C3CC3)c(=O)c3c(Nc4ccc(I)cc4F)n(C)c(=O)c(C)c32)c1 [Trametinib] (partner 0.02 µM)
Procedure, shortened: as §1

| Cell Line | relative viability (Carboplatin + AZD7762; first compound 0.08 µM) | relative viability (Carboplatin + AZD7762; first compound 0.253 µM) | relative viability (Carboplatin + AZD7762; first compound 0.8 µM) | relative viability (Carboplatin + AZD7762; first compound 2.53 µM) | relative viability (Carboplatin + AZD7762; first compound 8 µM) | relative viability (Carboplatin + Lapatinib; first compound 0.08 µM) | relative viability (Carboplatin + Lapatinib; first compound 0.253 µM) | relative viability (Carboplatin + Lapatinib; first compound 0.8 µM) | relative viability (Carboplatin + Lapatinib; first compound 2.53 µM) | relative viability (Carboplatin + Lapatinib; first compound 8 µM) | relative viability (MLN4924 + Olaparib; first compound 0.04 µM) | relative viability (MLN4924 + Olaparib; first compound 0.1265 µM) | relative viability (MLN4924 + Olaparib; first compound 0.4 µM) | relative viability (MLN4924 + Olaparib; first compound 1.265 µM) | relative viability (MLN4924 + Olaparib; first compound 4 µM) | relative viability (MLN4924 + Trametinib; first compound 0.04 µM) | relative viability (MLN4924 + Trametinib; first compound 0.1265 µM) | relative viability (MLN4924 + Trametinib; first compound 0.4 µM) | relative viability (MLN4924 + Trametinib; first compound 1.265 µM) | relative viability (MLN4924 + Trametinib; first compound 4 µM) |
| --- | --- | --- | --- | --- | --- | --- | --- | --- | --- | --- | --- | --- | --- | --- | --- | --- | --- | --- | --- | --- |
| HOP-62 | 0.793 | 0.665 | 0.669 | 0.608 | 0.497 | 0.98 | 1.07 | 1.09 | 1.02 | 0.812 | 0.205 | 0.303 | 0.0801 | 0.0633 | 0.0555 | 0.432 | 0.567 | 0.369 | 0.103 | 0.0823 |
| LC-2-ad | 0.922 | 0.829 | 0.854 | 0.851 | 0.78 | 0.967 | 0.981 | 0.938 | 0.991 | 0.844 | 0.68 | 0.53 | 0.335 | 0.269 | 0.197 | 0.95 | 0.827 | 0.701 | 0.541 | 0.305 |
| LCLC-97TM1 | 0.221 | 0.336 | 0.367 | 0.163 | 0.228 | 0.891 | – | 1.02 | 1.08 | 1 | 0.282 | 0.138 | 0.0947 | 0.0518 | 0.0597 | 0.208 | 0.214 | 0.157 | 0.0691 | 0.0607 |
| LK-2 | 0.712 | 0.582 | 0.341 | 0.412 | 0.497 | 1.17 | 0.956 | 0.858 | 0.792 | 0.809 | 0.4 | 0.312 | 0.234 | 0.151 | 0.137 | 0.699 | 0.677 | 0.618 | 0.245 | 0.212 |
| LOU-NH91 | 0.824 | 0.761 | 0.751 | 0.764 | 0.773 | 0.84 | 0.755 | 0.838 | 0.819 | 0.735 | 0.887 | 0.844 | 0.724 | 0.47 | 0.48 | 0.775 | 0.853 | 0.731 | 0.575 | 0.525 |
| LU99A | 0.425 | 0.405 | 0.349 | 0.243 | 0.196 | 0.988 | 1.04 | 1.01 | 0.917 | 0.795 | 0.18 | 0.136 | 0.16 | 0.108 | 0.0968 | 0.493 | 0.342 | 0.291 | 0.172 | 0.146 |
| LXF-289 | 1.17 | 1.16 | 1.07 | 1.06 | 1.03 | 0.908 | 0.936 | 0.91 | 0.89 | 0.891 | 0.919 | 0.429 | 0.381 | 0.132 | 0.0927 | 0.568 | 0.419 | 0.464 | 0.216 | 0.131 |
| NCI-H23 | 0.264 | 0.263 | 0.243 | 0.188 | 0.23 | 1.16 | 1.25 | 1 | 1.02 | 0.783 | 0.343 | 0.245 | 0.239 | 0.143 | 0.131 | 0.403 | 0.391 | 0.326 | 0.201 | 0.167 |
